{
  "source": "patent US20030162796A1",
  "about": "“Pharmaceutical composition for the treatment of disorders of non-human mammals” (priority 2001, published 2003)",
  "key": {"[1]": {"system": "SLU-1 cells", "assay": "3H-Thymidin proliferation assay, SLU-1", "type": "cell-based, canine", "details": "inhibitor 5 nM-10000 nM", "method": "(§1) The ability of BIBX1382 to inhibit the proliferation of cells in culture was tested with a ^3H-Thymidin proliferation assays. This assay was performed with three tumor cell lines (SLU-1, SLU-4, SH1b) and a normal cell line (CRL-6234).\n(§2) A pilot experiment with 500 to 12.000 cells per well in a 96-well plate in the presence of different concentrations of FCS (0% to 10%) was performed. After different proliferation times (24 h, 48 h, 72 h and 96 h), 10 μl ^3H-Thymidin (1:100 in PBS) were added, after incubation the plate was frozen, then thawed and the cells were harvested. The ^3H-Thymidin incorporation rate was determined. […] To determine a possible growth inhibitory effect of the inhibitor BIBX1382 on the cell lines, different concentrations (5 nM-10000 nM) of the inhibitor were used. Again ^3H-Thymidin was added, after incubation the plate was frozen, then thawed and the cells were harvested. The ^3H-Thymidin incorporation rate was determined in dependance of the concentration of inhibitor."}, "[2]": {"system": "SLU-4 cells", "assay": "3H-Thymidin proliferation assay, SLU-4", "type": "cell-based, canine", "details": "inhibitor 5 nM-10000 nM", "method": "as §1, §2"}, "[3]": {"system": "CRL-6234 cells", "assay": "3H-Thymidin proliferation assay, CRL-6234 (normal cell line)", "type": "cell-based, canine", "method": "as §1, §2"}, "[4]": {"system": "SH1b cells", "assay": "3H-Thymidin proliferation assay, SH1b", "type": "cell-based, canine", "details": "FIG. 3", "method": "as §1, §2\nThe ^3H-Thymidin proliferation assay was also done with the tumor cell line SH1b."}, "[5]": {"system": "SLU-1 tumors", "assay": "Effect on tumor growth in nude mice (SLU-1 subcutaneous xenograft)", "type": "in vivo", "method": "The cell line SLU-1 was cultured as described in Example 2. For use in tumor experiments, cells were trypsinised, washed and suspended in PBS+5% FCS at 10^7 cells/ml. 2×10^6 SLU-1 cells were injected into 40 nude mice (5-10 week-old female Hsd:NMRI-nu/nu purchased from Harlan, The Netherlands for the in vivo experiment with BIBX1382.\n(§3) When tumors were established and had reached diameters of approximately 5 mm as measured with a calliper, mice were randomly distributed into groups of 10 animals so that each tumor size was equally represented in each treatment group. The time span between cell injection and randomisation/start of treatment was sixteen days. Starting ten days after randomisation, mice were treated once daily (at 24 hour intervals) with various doses of the test compound. Administration was intragastral using a gavage needle (Infusionskanule Olive A, Acufirm, No. 14 64 11-1). Therefore, the compound was suspended in 2.5% aqueous HP-beta-CD (hydroxy-propyl-beta-cyclodextrine)/1% aqueous Natrosol (hydroxyethylcellulose). Control mice received the vehicle only. The administration volume was 2.5 to 10 ml per kg mouse body weight. The solutions were proportioned and kept at −20° C.\n(§4) The low dose group received 25 mg/kg/day (day 10-22) and 50 mg/kg/day (day 23-46) of BIBX1382; whereas the high dose group received 50 mg/kg/day (day 10-22), 70 mg/kg/day (day 23-30) and 100 mg/kg/day (day 31-46) of BIBX1382. The control group was treated with vehicle only.\nTumors were measured three times a week (Monday, Wednesday and Friday) with a calliper. Volumes [in mm^3] were then calculated according to the formula (tumor volume=length*diameter^2*π/6). To monitor side effects of treatment, mice were inspected daily for abnormalities and weighed three times (Monday, Wednesday and Friday) a week.\nTumor volumes were expressed as mean absolute tumor volumes [in mm^3] and plotted over days of treatment.\nThe specific relative tumor volumes (T/C [%], i.e. the mean relative tumor volumes of groups of compound-treated tumors in % of the mean relative tumor volume of the vehicle-treated control tumors: T/C [%]=100*mean Vrel compound-treated/mean Vrel vehicle-treated) were determined on the day following the final day of treatment.\nExperiments were usually terminated when vehicle control mice had to be killed because of large tumor sizes (1200 to 1700 mm^3)."}, "[6]": {"assay": "Plasma levels of BIBX1382 of the treated mice", "type": "in vivo, nude mice", "details": "for concentration at 2 h / concentration at 6 h / concentration at 24 h: nude, mouse, plasma, oral, read-out: plasma level, mean; for concentration at 2 h: 2 h after last compound administration on day 46; for concentration at 6 h: 6 h after last compound administration on day 46; for concentration at 24 h: 24 h after last compound administration on day 46", "method": "as §3, §4\nWith plasma levels of […] at 2 hours after oral compound administration a reduction of the growth rate to a T/C value of 62% was achieved."}},
  "note": "Read-outs that look alike come from different tables or passages of the source.",
  "data": [
    {"smiles": "CN1CCC(Nc2ncc3ncnc(Nc4ccc(F)c(Cl)c4)c3n2)CC1", "note": "[BIBX1382, 4-((3-chloro-4-fluoro-phenyl)amino)-6-(1-methyl-4-piperidinyl-amino)-pyrimido(5,4d)pyrimidine]", "values": [
      {"measurement": "proliferation rate (3H-Thymidin incorporation)", "setting": "[1]", "result": "inhibited in their proliferation rate"},
      {"measurement": "proliferation rate (3H-Thymidin incorporation)", "setting": "[2]", "result": "not affected"},
      {"measurement": "effect on normal cell line at high concentrations", "setting": "[3]; high concentrations", "result": "toxic effects at high concentrations"},
      {"measurement": "proliferation at lower concentration", "setting": "[3]; lower concentration", "result": "not inhibited"},
      {"measurement": "proliferation (3H-Thymidin incorporation)", "setting": "[4]", "result": "inhibited in its proliferation time"},
      {"measurement": "SLU-1 tumor growth", "setting": "[5]; all tested doses, oral once daily, FIGS. 4 and 5", "result": "influenced SLU-1 tumor growth at all tested doses"},
      {"measurement": "T/C values compared to the vehicle control group (standard T-test)", "setting": "[5]; both dose groups (low and high)", "result": "significantly lower"},
      {"measurement": "T/C", "setting": "[5]; high dose group (Group 2), 50 → 70 → 100 mg/kg/day, after 100 mg/kg/day (day 31-46), day 47", "result": 38, "unit": "%"},
      {"measurement": "T/C", "setting": "[5]; high dose group after 50 mg/kg/day (day 10-22)", "result": 52, "unit": "%"},
      {"measurement": "T/C", "setting": "[5]; high dose group after 70 mg/kg/day (day 23-30)", "result": 53, "unit": "%"},
      {"measurement": "increase in tumor size at maximum", "setting": "[5]; high dose group, 50 mg/kg/day, day 10-22, all ten tumors", "result": "5-6 fold"},
      {"measurement": "increase in tumor size", "setting": "[5]; high dose group, 70 mg/kg/day, day 23-30", "result": "about 2 fold"},
      {"measurement": "increase in tumor size", "setting": "[5]; high dose group, 100 mg/kg/day, day 31-46", "result": "1.5-1.9 fold"},
      {"measurement": "increase in tumor size on average", "setting": "[5]; high dose group, whole period of treatment", "result": 20, "unit": "fold"},
      {"measurement": "T/C", "setting": "[5]; low dose group (Group 1), 25 → 50 mg/kg/day, after 50 mg/kg/day (day 23-46), day 47", "result": 62, "unit": "%"},
      {"measurement": "T/C", "setting": "[5]; low dose group after 25 mg/kg/day (day 10-22)", "result": 78, "unit": "%"},
      {"measurement": "increase in tumor size", "setting": "[5]; low dose group, 25 mg/kg/day, day 10-22, 9 of 10 tumors", "result": 8, "unit": "fold"},
      {"measurement": "tumor volume change", "setting": "[5]; low dose group, 25 mg/kg/day, day 10-22, one of 10 tumors", "result": "did not change at all"},
      {"measurement": "increase in tumor size", "setting": "[5]; low dose group, 50 mg/kg/day, day 23-46, all 10 tumors", "result": "3-6 fold"},
      {"measurement": "increase in tumor size on average", "setting": "[5]; low dose group, whole period of treatment (day 10-46)", "result": 35, "unit": "fold"},
      {"measurement": "plasma level", "setting": "[6]; 2 hours after oral compound administration, level giving T/C 38%", "result": "approximately 4000 mmol/l"},
      {"measurement": "concentration at 2 h", "setting": "[6]; 50 mg/kg", "result": 3.17, "unit": "µM"},
      {"measurement": "concentration at 6 h", "setting": "[6]; 50 mg/kg", "result": 2.85, "unit": "µM"},
      {"measurement": "concentration at 24 h", "setting": "[6]; 50 mg/kg", "result": 394, "unit": "nM"},
      {"measurement": "concentration at 2 h", "setting": "[6]; 100 mg/kg", "result": 4.16, "unit": "µM"},
      {"measurement": "concentration at 6 h", "setting": "[6]; 100 mg/kg", "result": 4.09, "unit": "µM"},
      {"measurement": "concentration at 24 h", "setting": "[6]; 100 mg/kg", "result": 591, "unit": "nM"}
    ]}
  ]
}
